Source: PMC3632601, “Polyacetylenes from Notopterygium incisum–New Selective Partial Agonists of Peroxisome Proliferator-Activated Receptor-Gamma” (PLoS ONE, 2013)
Several values for one entry are separate records, joined by “and”; a condition that tells them apart may be missing. Equal values may be shown once. Entries after “also recorded” stand apart in the source; their conditions may differ.

Tests used:
human PPARγ = molecular target: T1, human PPARγ (Homo sapiens, UniProt P37231); assay: PPARγ luciferase reporter gene transactivation in transfected HEK-293 cells; conditions: for PPARγ activation maximal fold activation: HEK-293, 18 h, fold induction above vehicle control (DMSO 0.1%)
T1 sequence (P37231 1-477 isoform P37231-2): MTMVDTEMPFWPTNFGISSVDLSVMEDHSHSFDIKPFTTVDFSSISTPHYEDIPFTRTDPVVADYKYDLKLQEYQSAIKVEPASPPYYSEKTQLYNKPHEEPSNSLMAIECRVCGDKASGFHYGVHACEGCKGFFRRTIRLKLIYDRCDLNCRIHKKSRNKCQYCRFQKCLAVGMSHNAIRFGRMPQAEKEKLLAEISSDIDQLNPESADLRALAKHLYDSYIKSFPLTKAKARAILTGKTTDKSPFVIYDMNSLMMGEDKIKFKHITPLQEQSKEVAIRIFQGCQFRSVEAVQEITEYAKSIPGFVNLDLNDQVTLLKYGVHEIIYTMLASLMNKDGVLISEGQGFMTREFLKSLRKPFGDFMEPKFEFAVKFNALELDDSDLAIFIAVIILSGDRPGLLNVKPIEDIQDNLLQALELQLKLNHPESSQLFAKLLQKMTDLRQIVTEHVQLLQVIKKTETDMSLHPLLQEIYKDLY
Experimental: HEK-293 cells (ATCC, USA) were cultured in DMEM with phenol red, supplemented with 100 U/ml benzylpenicillin, 100 µg/ml streptomycin, 2 mM L-glutamine, and 10% FBS. Cells were maintained in 75 cm^2 flasks containing 10 ml medium at 37°C and 5% CO2. The cells were seeded in 10 cm dishes at a density of 6 × 10^6 cells/dish, incubated for 18 h, and transfected by the calcium phosphate precipitation method [31] with 4 µg of the reporter plasmid (tk-PPREx3-luc), 4 µg from the respective PPAR subtype expression plasmid, and 2 µg green fluorescent protein plasmid (pEGFP-N1, Clontech, Mountain View, CA) as internal control. After 6 h, the transfected cells were harvested and re-seeded (5 × 10^4 cells/well) in 96-well plates containing DMEM without phenol red, supplemented with 100 U/ml benzylpenicillin, 100 µg/ml streptomycin, 2 mM L-glutamine, and 5% charcoal-stripped FBS. The cells were further treated with the indicated extracts or compounds or the solvent vehicle and incubated for 18 h. The medium was then discarded and the cells were lysed with a reporter lysis buffer (E3971, Promega, Madison, USA). Luciferase activity of the cell lysates was evaluated using a GeniosPro plate reader (Tecan, Grödig, Austria). The luminescence signals obtained from the luciferase activity measurements were normalized to the EGFP-derived fluorescence, to account for differences in the transfection efficiency or cell number.
(A) HEK-293 cells were transiently co-transfected with a plasmid encoding full-length human PPARγ, a reporter plasmid containing PPRE coupled to a luciferase reporter and an EGFP plasmid as internal control. […] The data shown are means ± SD of three independent experiments each performed in quadruplet. ***p<0.001, *p<0.05 (compared to the solvent vehicle group; ANOVA/Bonferroni).
The data points shown are means ± SEM of three independent experiments each performed in quadruplet. (B) Cells were transfected and treated as indicated above. […] (C) The cells were prepared as indicated above and treated for 18 h with different concentrations of falcarindiol, always in the presence of 1 µM pioglitazone. The data shown are means ± SD of three independent experiments each performed in quadruplet.

human PPARβ/δ = molecular target: T2, human PPARβ/δ (Homo sapiens, UniProt Q03181); assay: PPARβ/δ luciferase reporter gene transactivation in transfected HEK-293 cells; assay type: cell-based; conditions: HEK-293, tk-PPREx3-luc reporter, 18 h, 0.1–30 µM; n.d. = not detected up to 30 µM; read-out: PPARβ/δ activation EC50
T2 construct: expressed in transfected cells; host or cells: HEK-293
T2 sequence (Q03181 1-441): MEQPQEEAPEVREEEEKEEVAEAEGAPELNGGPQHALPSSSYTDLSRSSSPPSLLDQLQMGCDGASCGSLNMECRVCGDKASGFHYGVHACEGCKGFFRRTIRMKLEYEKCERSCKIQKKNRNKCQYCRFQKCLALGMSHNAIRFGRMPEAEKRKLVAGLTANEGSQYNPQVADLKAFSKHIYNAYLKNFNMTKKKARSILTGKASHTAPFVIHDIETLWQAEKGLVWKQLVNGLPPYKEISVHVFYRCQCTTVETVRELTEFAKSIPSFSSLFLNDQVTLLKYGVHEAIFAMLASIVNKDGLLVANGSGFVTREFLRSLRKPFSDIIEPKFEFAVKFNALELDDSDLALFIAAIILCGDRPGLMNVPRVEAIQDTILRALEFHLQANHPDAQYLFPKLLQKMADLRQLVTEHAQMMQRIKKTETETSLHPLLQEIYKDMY
Experimental: (§1) HEK-293 cells (ATCC, USA) were cultured in DMEM with phenol red, supplemented with 100 U/ml benzylpenicillin, 100 µg/ml streptomycin, 2 mM L-glutamine, and 10% FBS. Cells were maintained in 75 cm^2 flasks containing 10 ml medium at 37°C and 5% CO2. The cells were seeded in 10 cm dishes at a density of 6 × 10^6 cells/dish, incubated for 18 h, and transfected by the calcium phosphate precipitation method with 4 µg of the reporter plasmid (tk-PPREx3-luc), 4 µg from the respective PPAR subtype expression plasmid, and 2 µg green fluorescent protein plasmid (pEGFP-N1, Clontech, Mountain View, CA) as internal control. After 6 h, the transfected cells were harvested and re-seeded (5 × 10^4 cells/well) in 96-well plates containing DMEM without phenol red, supplemented with 100 U/ml benzylpenicillin, 100 µg/ml streptomycin, 2 mM L-glutamine, and 5% charcoal-stripped FBS. The cells were further treated with the indicated extracts or compounds or the solvent vehicle and incubated for 18 h. The medium was then discarded and the cells were lysed with a reporter lysis buffer (E3971, Promega, Madison, USA). Luciferase activity of the cell lysates was evaluated using a GeniosPro plate reader (Tecan, Grödig, Austria). The luminescence signals obtained from the luciferase activity measurements were normalized to the EGFP-derived fluorescence, to account for differences in the transfection efficiency or cell number.

human PPARα = molecular target: T3, human PPARα (Homo sapiens, UniProt Q07869); assay: PPARα luciferase reporter gene transactivation in transfected HEK-293 cells; assay type: cell-based; conditions: HEK-293, tk-PPREx3-luc reporter, 18 h, 0.1–30 µM; n.d. = not detected up to 30 µM; read-out: PPARα activation EC50
T3 construct: expressed in transfected cells; host or cells: HEK-293
T3 sequence (Q07869 1-468): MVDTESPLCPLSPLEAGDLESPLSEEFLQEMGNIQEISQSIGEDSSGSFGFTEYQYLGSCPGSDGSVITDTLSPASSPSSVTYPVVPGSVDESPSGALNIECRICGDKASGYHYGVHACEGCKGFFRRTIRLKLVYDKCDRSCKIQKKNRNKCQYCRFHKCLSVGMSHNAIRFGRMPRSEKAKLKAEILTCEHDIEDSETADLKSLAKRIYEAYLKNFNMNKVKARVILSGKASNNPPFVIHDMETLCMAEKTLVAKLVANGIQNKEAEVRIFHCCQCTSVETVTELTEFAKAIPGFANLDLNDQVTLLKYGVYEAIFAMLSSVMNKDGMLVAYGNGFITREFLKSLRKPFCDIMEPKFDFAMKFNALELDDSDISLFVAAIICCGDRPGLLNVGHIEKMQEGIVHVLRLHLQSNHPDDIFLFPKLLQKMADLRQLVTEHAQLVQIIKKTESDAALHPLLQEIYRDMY
Experimental: as §1

[1] = molecular target: T4, human PPARγ ligand-binding domain (LBD) (Homo sapiens, UniProt P37231); assay: LanthaScreen TR-FRET PPARγ competitive binding assay; conditions: purified human PPARγ-LBD, 6 h incubation, Cheng-Prusoff from IC50
T4 construct: purchased Invitrogen
T4 sequence (P37231 238-503 limits assumed): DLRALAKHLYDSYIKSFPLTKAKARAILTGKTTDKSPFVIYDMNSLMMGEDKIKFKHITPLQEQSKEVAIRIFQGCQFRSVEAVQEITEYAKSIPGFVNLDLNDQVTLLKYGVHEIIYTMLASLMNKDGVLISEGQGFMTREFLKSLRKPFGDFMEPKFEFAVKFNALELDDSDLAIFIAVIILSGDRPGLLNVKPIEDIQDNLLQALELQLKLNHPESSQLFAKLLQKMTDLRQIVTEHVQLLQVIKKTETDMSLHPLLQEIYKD
Experimental: The LanthaScreen® time-resolved fluorescence resonance energy transfer (TR-FRET) PPARγ competitive binding assay (Invitrogen, Lofer, Austria) was performed according to the manufacturer’s protocol. The test compounds dissolved in DMSO or the blank solvent vehicle (DMSO) were incubated together with the human PPARγ ligand-binding domain (LBD) tagged with GST, a terbium-labeled anti-GST antibody, and a fluorescently labeled PPAR ligand (Fluormone Pan-PPAR Green, Invitrogen). In this assay, the fluorescently labeled ligand is binding to the human PPARγ LBD, which brings it in close spatial proximity to the terbium-labeled anti-GST antibody. Excitation of the terbium at 340 nm results in energy transfer (FRET) and partial excitation of the fluorescently labeled PPAR ligand, followed by emission at 520 nm. Test-compounds binding to the human PPARγ LBD are competing with the fluorescently labeled ligand and displacing it, resulting in a decrease of the FRET signal. […] All measurements were performed with a GeniosPro plate reader (Tecan, Grödig, Austria).
One-way analysis of variance (ANOVA) with Bonferroni post hoc test, or two-tailed paired t-test was used to determine statistical significance. […]

3T3-L1 adipocytes = assay: 2-Deoxy-D-(1H^3)-glucose uptake in differentiated 3T3-L1 adipocytes; assay type: cell-based; conditions: 10 µM for 48 h, insulin 500 pM, vs vehicle, listed as falcarindiol
Experimental: Confluent 3T3-L1 preadipocytes (ATCC, USA) were differentiated (day 0) into mature adipocytes for 10 days (2 days in DMEM supplemented with 10% FBS, […], 1 µg/ml insulin and 500 nM dexamethasone followed by 2 days in DMEM/10% FBS/1 µg/ml insulin and 6 days in DMEM/10% FBS), and incubated with the test compounds (10 µM) or 0.1% DMSO as vehicle control for 48 h at 37°C. Before the experiment, cells were incubated for 4 h in DMEM/0.1% BSA followed by 1 h in KRH/BSA buffer (50 mM HEPES, 136 mM NaCl, 23.5 mM KCl, 1.25 mM MgSO4, 1.25 mM CaCl2 and 0.1% BSA). […] The glucose uptake rate was determined by liquid scintillation counting (Perkin Elmer, Waltham, MA, USA) of cell lysates (20 mM HEPES, 1% Igepal CA-630), and normalized to protein content assessed by the Bradford protein assay.
Figure 4 Assessment of adipogenicity and glucose uptake-enhancing properties of falcarindiol. […] For an estimate of accumulated lipids, and thus for the adipogenic potential of the test compounds, Oil Red O staining and photometric quantification at 550 nm was performed. […] (B) 3T3-L1 mature adipocytes were incubated with falcarindiol (10 µM) or solvent vehicle (0.1% DMSO) for 48 h and 2-deoxy-D-(1H^3)-glucose cellular uptake was determined for 10 min in the presence or absence (basal uptake) of insulin (500 pM). […]

3T3-L1 preadipocytes = assay: Adipogenicity: 3T3-L1 preadipocyte differentiation, Oil Red O staining; assay type: cell-based; conditions: 10 µM, with 1 µg/ml insulin, compared with pioglitazone 10 µM; listed as falcarindiol
Experimental: 3T3-L1 preadipocytes (ATCC, USA) were propagated in DMEM supplemented with 10% calf serum. […]. The medium was renewed every two days until day 8. For an estimate of lipid accumulation, Oil Red O staining was performed. For this, cells were fixed in 10% formaldehyde for 1 h and stained with Oil Red O for 10 min. After washing off excessive dye, bound dye was solubilized with 100% isopropanol and photometrically quantified at 550 nm. For better appreciation of the adipogenic potential of the investigated PPARγ agonists, a subset of preadipocytes was treated according to a common standard differentiation protocol (2 days in DMEM/10% FBS/500 µM IBMX/500 nM dexamethasone and 1 µg/mL insulin (MDI), followed by 2 days in DMEM/10% FBS/1 µg/ml insulin and 6 days in DMEM/10% FBS).
Figure 4 Assessment of adipogenicity and glucose uptake-enhancing properties of falcarindiol. […]; containing 10% FBS, 500 µM IBMX, 500 nM dexamethasone, and 1 µg/ml insulin) as a positive control. For an estimate of accumulated lipids, and thus for the adipogenic potential of the test compounds, Oil Red O staining and photometric quantification at 550 nm was performed. […] (B) 3T3-L1 mature adipocytes were incubated with falcarindiol (10 µM) or solvent vehicle (0.1% DMSO) for 48 h and 2-deoxy-D-(1H^3)-glucose cellular uptake was determined for 10 min in the presence or absence (basal uptake) of insulin (500 pM). […]

Row | Compound | EC50 (human PPARγ) | PPARγ activation maximal fold activation (human PPARγ) | EC50 (human PPARβ/δ) | EC50 (human PPARα) | Ki [1] | insulin-mediated glucose uptake (3T3-L1 adipocytes) | share of the stimulating effect of pioglitazone blocked by co-treatment (human PPARγ; co-treatment with 1 µM pioglitazone, 18 h, maximal block) | stimulating effect upon co-treatment with PPARγ antagonist T0070907 (human PPARγ; falcarindiol 10 µM, T0070907 1 µM) | 3T3-L1 adipocyte differentiation (lipid accumulation, Oil Red O) (3T3-L1 preadipocytes)
1 | C=C[C@@H](O)C#CC#C[C@H](/C=C\CCCCCCC)OC(C)=O [compound 1, 3R,8S,9Z-3-hydroxyheptadeca-1,9-diene-4,6-diyne-8-yl acetate] | 3.59 µM | 2.36 fold | > 30 µM | > 30 µM |  |  |  |  | 
2 | C=C[C@@H](O)C#CC#C[C@@H](O)/C=C\CCCCCCC [compound 2, 3R,8S,9Z-heptadeca-1,9-diene-4,6-diyne-3,8-diol] | 3.29 µM | 3.26 fold | > 30 µM | > 30 µM | 3.07 µM and 3.1 µM | significantly enhanced | 70–80% | blocked | induced 3T3-L1 preadipocyte differentiation; also recorded: induced the differentiation to adipocytes as expected, although to a smaller extent than pioglitazone
3 | C=C[C@@H](O)C#CC#C[C@@H](O)C1OC1CCCCCCC (stereo partly drawn) [compound 3, 1R,6R-1-(3-heptyloxiran-2-yl)octa-7-ene-2,4-diyne-1,6-diol] | 2.03 µM | 1.88 fold | > 30 µM | > 30 µM |  |  |  |  | 
4 | C=C[C@@H](O)/C=C/C#C[C@@H](O)/C=C\CCCCCCC [compound 4, 3R,4E,8S,9Z-heptadeca-1,4,9-triene-6-yne-3,8-diol] | 4.58 µM | 2.29 fold | > 30 µM | > 30 µM |  |  |  |  | 
5 | CCCCCCC/C=C\CC#CC#CCCCO [compound 5, 9Z-heptadecene-4,6-diyne-1-ol] | 11.3 µM | 1.92 fold | > 30 µM | > 30 µM |  |  |  |  | 
6 | CCCCCCC/C=C\CC#CC#C/C=C\CO [compound 6, 2Z,9Z-heptadecadiene-4,6-diyne-1-ol] | 4.18 µM | 1.73 fold | > 30 µM | > 30 µM |  |  |  |  | 
